Several values for one entry are separate records, joined by “and”; a condition that tells them apart may be missing. Equal values may be shown once. Where a name gives a salt, the structure may show the parent alone.
What was measured:
[1] = target: SARS-CoV-2 RBD (RBD Wuhan-1) binding to ACE2 (Severe acute respiratory syndrome coronavirus 2, UniProt P0DTC2)
[2] = system: B.1.617.2 pseudovirus, entry into 293T-ACE2-TMPRSS2 cells; type: cell-based, SARS-CoV-2
[3] = system: B.1.617.1 pseudovirus, entry into 293T-ACE2-TMPRSS2 cells; type: cell-based, SARS-CoV-2; settings: for IC50: read-out: IC50, B.1.617.1 PV transduction assay
[4] = system: SARS-CoV-2 variant pseudoviruses (D614G, P.1., B 1.1.7, B.1.429 and B1.351), entry into 293T-ACE2-TMPRSS2 cells; type: cell-based

CC(C)(S)C(=O)N[C@@H](CS)C(=O)O [Bucillamine]
Inhibition of binding of RBD Wuhan-1 to ACE2 (in words) [1]: much stronger effects | Increase of IC50 for B.1.617.2 versus B.1.617.1 [2]: approximately two-fold

NCCS [Cysteamine]
Inhibition of binding of RBD Wuhan-1 to ACE2 (in words) [1]: much stronger effects | IC50 [3]: ~1000 µM | Increase of IC50 for B.1.617.2 versus B.1.617.1 [2]: 3–15 fold | Entry of SARS-CoV-2 PV variants, cells pretreated [4]: not affected | Potency against variant PV entry (in words) [4]: less potent against the other variants tested

N[C@@H](CS)C(=O)O [L-cysteine]
Inhibition of B.1.617.1 PV entry (in words) [3]: intermediate potency

O=S(=O)(O)CCS [Mesna, 2-mercaptoethane sulfonate, sodium salt]
Inhibition of binding of RBD Wuhan-1 to ACE2 (in words) [1]: much stronger effects | IC50, B.1.617.2 PV transduction assay [2]: did not achieve an IC50 value at the doses tested

CC(C)(S)[C@@H](N)C(=O)O [Penicillamine]
Inhibition of binding of RBD Wuhan-1 to ACE2 (in words) [1]: relatively weak inhibitory effects

O=C(O)[C@@H](S)[C@@H](S)C(=O)O [Succimer, Dimercaptosuccinic acid]
Inhibition of binding of RBD Wuhan-1 to ACE2 (in words) [1]: relatively weak inhibitory effects

CO[C@H]1O[C@H](CS)[C@H](O)[C@H](O)[C@H]1O [TDG, methyl 6-thio-6-deoxy-α-D-galactopyranoside]
Potency higher than compounds with similarly high pKa values (NAC, Mesna) [3]: 5 fold | Increase of IC50 for B.1.617.2 versus B.1.617.1 [2]: 3–15 fold

NCCCNCCS [WR-1065]
Inhibition of binding of RBD Wuhan-1 to ACE2 (in words) [1]: much stronger effects | IC50 [3]: ~1000 µM | Increase of IC50 for B.1.617.2 versus B.1.617.1 [2]: 3–15 fold | IC50 ([2]; read-out: IC50, B.1.617.2 PV transduction assay): 6000 µM and 5000 to 15000 µM
